In patent US7348402B2, “Antimicrobial peptide, its analogs and antimicrobial composition comprising them” (priority 2002, dated 2008):
No end group written: not given here.

Legend:
Format in all cases: cell-based
E. coli = assay: Cell penetration activity by confocal microscopy (FITC-labeled peptides); conditions: FITC-labeled peptide applied to fixed E. coli for 5 minutes
Procedure: FIGS. 1A˜1D are the results of analyzing the cell penetration activity of the new antimicrobial peptides by confocal microscopy. To emphasize the location of the antimicrobial peptides, color was eliminated from the images. The white area in FIGS. 1A˜1D is the antimicrobial peptide penetrated within the cell.
The cell penetration activity of the peptides prepared in Example 1 was observed by confocal microscopy. After inoculating and culturing E. coli in trypticase soy broth at 37° C. overnight, they were inoculated in new media and cultured for 2 hours to exponential growth phase. After washing E. coli with 10 mM NAPB (sodium phosphate buffer) and diluting to 10^5 CFU/ml, the above diluted E. coli was fixed for 30 min on glass-slides coated with poly-L-lysine. The N-terminus of the peptides prepared in Example 1 was labeled with FITC (fluoresceinisothicyanate), and the labeled peptides were applied to E. coli fixed on the glass-slides for 5 minutes. The glass-slides were washed with 10 mM NAPB and observed them by confocal microscopy.

[1] = tested on: human red blood cells (hRBC); assay: Hemolytic activity on human red blood cells
Procedure: After separating the precipitated human red blood cells (hRBC) from 3 ml of human blood, they were washed with PBS (phosphate buffered saline) and diluted to make the total volume of 20 ml. In 190 μl of the prepared hRBC solution, 10 μl of each peptide sample (4 μg/μl ) prepared in Example 1 was added to make the final concentration of 200 μg/ml, reacted for 1 h at 37° C. and centrifuged for 5 min at 4000 rpm. […] The absorbance of the sample treated with 0.2% Triton X-100 was set to represent 100% hemolysis and the percent (%) hemolysis of each sample was relatively calculated from each measured absorbance, as shown in Table 3.

[2] = tested on: Escherichia coli (ATCC 27325); conditions: ATCC 27325, 12 h
Summary of the method: (§1)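 Inoculum: exponential-phase cells (2 h subculture after overnight growth), 10^5 per 1 ml. Media/temperature: TSB, 37° C for bacteria; SAB, 30° C for fungi. Peptides added as serial dilutions; microdilution MIC.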

[3] = tested on: Saccharomyces cerevisiae (ATCC 44774); conditions: ATCC 44774, 12 h
Summary of the method: as §1

[4] = tested on: Candida albicans (ATCC 10231); conditions: ATCC 10231, 12 h
Summary of the method: as §1

[5] = tested on: Streptococcus mutans (ATCC 25175); conditions: ATCC 25175, 12 h
Summary of the method: as §1

[6] = tested on: Pseudomonas putida (ATCC 17426); conditions: ATCC 17426, 12 h
Summary of the method: as §1

[7] = tested on: Cryptococcus neoformans (ATCC 34881); conditions: ATCC 34881, 12 h
Summary of the method: as §1

[8] = tested on: Salmonella enteritidis (ATCC 15277); conditions: ATCC 15277, 12 h
Summary of the method: as §1

[9] = tested on: Bacillus subtilis (ATCC 62037); conditions: ATCC 62037, 12 h
Summary of the method: as §1

[10] = tested on: Staphylococcus aureus (ATCC 15752); conditions: ATCC 15752, 12 h
Summary of the method: as §1

Compound | cell penetration activity (E. coli) | A567 ([1]; absorbance of supernatant diluted 10 times, peptide 200 μg/ml, 1 h at 37° C.) | hemolysis of hRBC (in words) ([1]; concentration of 200 μg/ml) | Minimum Inhibitory Concentration [2] | Minimum Inhibitory Concentration [3] | Minimum Inhibitory Concentration [4] | Minimum Inhibitory Concentration [5] | Minimum Inhibitory Concentration [6] | Minimum Inhibitory Concentration [7] | Minimum Inhibitory Concentration [8] | Minimum Inhibitory Concentration [9] | Minimum Inhibitory Concentration [10]
33 (KLVRNWPIGKLVRKLVRKLVR; antimicrobial peptide) [compound 33] | penetrate into E. coli cells | – | – | – | – | – | – | – | – | – | – | –
CC[C@H](C)[C@H](NC(=O)CN)C(=O)NCC(=O)N[C@@H](C)C(=O)N[C@H](C(=O)N[C@@H](CC(C)C)C(=O)N[C@@H](CCCCN)C(=O)N[C@H](C(=O)N[C@@H](CC(C)C)C(=O)N[C@H](C(=O)N[C@H](C(=O)NCC(=O)N[C@@H](CC(C)C)C(=O)N1CCC[C@H]1C(=O)N[C@@H](C)C(=O)N[C@@H](CC(C)C)C(=O)N[C@H](C(=O)N[C@@H](CO)C(=O)N[C@@H](Cc1c[nH]c2ccccc12)C(=O)N[C@H](C(=O)N[C@@H](CCCCN)C(=O)N[C@@H](CCCNC(=N)N)C(=O)N[C@@H](CCCCN)C(=O)N[C@@H](CCCNC(=N)N)C(=O)N[C@@H](CCC(N)=O)C(=O)N[C@@H](CCC(N)=O)C(N)=O)[C@@H](C)CC)[C@@H](C)CC)[C@@H](C)O)[C@@H](C)O)C(C)C)C(C)C [Melittin, melittin] | – | 3.17 | destroy almost all hRBC | – | – | – | – | – | – | – | – | –
GIGKFLHSAKKFGKAFVGEIMNS [Magainin, magainin, reference compound] | bind with cell membrane | – | – | – | – | – | – | – | – | – | – | –
RVLKRVLKRVLKQWPIGRVLK [compound 47] | – | – | – | 1 µg/mL | 2 µg/mL | 1 µg/mL | 2 µg/mL | 1 µg/mL | 1 µg/mL | 1 µg/mL | 1 µg/mL | 1 µg/mL
RVLRQWPIGRVLRRVLRRVLR [compound 5] | – | – | – | 1 µg/mL | 2 µg/mL | 1 µg/mL | 1 µg/mL | 1 µg/mL | 1 µg/mL | 1 µg/mL | 1 µg/mL | 1 µg/mL
RVLRRVLRRVLRQWPIGRVLR [compound 39] | – | – | – | 1 µg/mL | 2 µg/mL | 2 µg/mL | 2 µg/mL | 1 µg/mL | 1 µg/mL | 1 µg/mL | 2 µg/mL | 2 µg/mL
RVVKNWPIGRVVKRVVKRVVK [compound 26] | – | – | – | 2 µg/mL | 2 µg/mL | 2 µg/mL | 1 µg/mL | 1 µg/mL | 1 µg/mL | 1 µg/mL | 1 µg/mL | 1 µg/mL
RVVKRVVKRVVKNWPIGRVVK [compound 60] | – | – | – | 2 µg/mL | 1 µg/mL | 1 µg/mL | 2 µg/mL | 1 µg/mL | 1 µg/mL | 2 µg/mL | 1 µg/mL | 2 µg/mL
RVVRNWPIGRVVRRVVRRVVR [compound 18] | – | – | – | 1 µg/mL | 1 µg/mL | 1 µg/mL | 2 µg/mL | 1 µg/mL | 1 µg/mL | 2 µg/mL | 1 µg/mL | 1 µg/mL
RVVRQWPIGRVVRRVVRRVVR [compound 1] | – | – | – | 1 µg/mL | 2 µg/mL | 2 µg/mL | 2 µg/mL | 1 µg/mL | 1 µg/mL | 1 µg/mL | 2 µg/mL | 1 µg/mL
RVVRRVVRRVVRNWPIGRVVR [compound 52] | – | – | – | 1 µg/mL | 1 µg/mL | 1 µg/mL | 2 µg/mL | 1 µg/mL | 1 µg/mL | 2 µg/mL | 1 µg/mL | 1 µg/mL
RVVRRVVRRVVRQWPIGRVVR [compound 35] | – | – | – | 2 µg/mL | 2 µg/mL | 1 µg/mL | 1 µg/mL | 1 µg/mL | 1 µg/mL | 1 µg/mL | 1 µg/mL | 1 µg/mL
SEQ ID NO: 1 (RVVRQWPIGRVVRRVVRRVVR; antimicrobial peptide) | penetrate into E. coli cells | – | – | – | – | – | – | – | – | – | – | –
